Assay results published in ChEMBL document CHEMBL1141584, “Synthesis, biological evaluation and molecular modelling studies of methyleneimidazole substituted biaryls as inhibitors of human 17alpha-hydroxylase-17,20-lyase (CYP17). Part I: Heterocyclic modifications of the core structure” (Bioorg Med Chem, 2008).

Experiments:
[1] = target: T1, Steroid 17-alpha-hydroxylase/17,20 lyase (Homo sapiens, UniProt P05093); assay: Inhibition of human CYP17 expressed in Escherichia coli co-expressed with NADPH-P450 reductase at 0.2 uM
T1 sequence (P05093 whole entry): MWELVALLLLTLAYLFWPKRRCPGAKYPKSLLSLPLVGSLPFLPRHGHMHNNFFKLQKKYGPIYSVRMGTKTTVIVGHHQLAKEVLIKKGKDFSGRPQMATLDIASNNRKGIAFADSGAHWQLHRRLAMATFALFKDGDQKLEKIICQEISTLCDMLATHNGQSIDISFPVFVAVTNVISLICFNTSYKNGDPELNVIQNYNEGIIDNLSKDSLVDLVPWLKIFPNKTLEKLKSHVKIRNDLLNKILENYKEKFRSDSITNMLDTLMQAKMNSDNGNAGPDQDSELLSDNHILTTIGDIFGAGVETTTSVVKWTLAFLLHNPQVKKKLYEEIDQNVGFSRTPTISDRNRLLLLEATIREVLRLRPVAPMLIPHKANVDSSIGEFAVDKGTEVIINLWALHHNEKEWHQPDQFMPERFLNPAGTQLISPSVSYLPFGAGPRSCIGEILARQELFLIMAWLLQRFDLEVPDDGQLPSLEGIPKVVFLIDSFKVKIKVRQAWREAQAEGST

[2] = target: T1, Steroid 17-alpha-hydroxylase/17,20 lyase; assay: Inhibition of human CYP17 expressed in Escherichia coli co-expressed with NADPH-P450 reductase at 2 uM
CYP2C19 [3] = target: T2, CYP2C19 (Homo sapiens, UniProt P33261); assay: Inhibition of recombinant CYP2C19 at 1 uM; assay type: ADME
CYP1A2 [4] = target: T3, CYP1A2 (Homo sapiens, UniProt P05177); assay: Inhibition of recombinant CYP1A2 at 10 uM; assay type: ADME
T3 sequence (P05177 whole entry): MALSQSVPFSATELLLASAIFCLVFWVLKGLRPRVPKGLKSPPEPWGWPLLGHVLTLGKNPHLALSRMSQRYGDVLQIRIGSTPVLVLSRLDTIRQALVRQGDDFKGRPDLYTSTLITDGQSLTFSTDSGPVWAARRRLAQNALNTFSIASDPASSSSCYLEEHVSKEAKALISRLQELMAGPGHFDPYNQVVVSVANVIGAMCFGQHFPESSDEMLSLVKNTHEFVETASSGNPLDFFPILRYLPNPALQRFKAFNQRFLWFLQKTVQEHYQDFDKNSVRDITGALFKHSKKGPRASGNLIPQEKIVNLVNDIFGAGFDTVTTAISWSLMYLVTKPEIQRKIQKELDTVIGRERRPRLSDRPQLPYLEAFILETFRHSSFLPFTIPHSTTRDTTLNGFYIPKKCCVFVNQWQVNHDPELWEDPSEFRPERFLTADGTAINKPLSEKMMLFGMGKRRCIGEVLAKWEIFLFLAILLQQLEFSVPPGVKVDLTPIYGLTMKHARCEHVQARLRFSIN

CYP2C19 [5] = target: T2, CYP2C19; assay: Inhibition of recombinant CYP2C19 at 10 uM; assay type: ADME
CYP1A2 [6] = target: T3, CYP1A2; assay: Inhibition of recombinant CYP1A2 at 1 uM; assay type: ADME
CYP2C9 [7] = target: T4, CYP2C9 (Homo sapiens, UniProt P11712); assay: Inhibition of recombinant CYP2C9 at 1 uM; assay type: ADME
CYP2C9 [8] = target: T4, CYP2C9; assay: Inhibition of recombinant CYP2C9 at 10 uM; assay type: ADME
Rattus norvegicus [9] = assay: Reduction of testosterone level in Wistar rat plasma at 50 mg/kg, po after 6 hrs by ELISA relative to pretreatment value; assay type: functional; set-up: scale not given: the % may be the effect or the level left
CYP2D6 [10] = target: T5, CYP2D6 (Homo sapiens, UniProt P10635); assay: Inhibition of recombinant CYP2D6 at 1 uM; assay type: ADME
CYP2D6 [11] = target: T5, CYP2D6; assay: Inhibition of recombinant CYP2D6 at 10 uM; assay type: ADME
[12] = Terminal half life in Wistar rat plasma at 50 mg/kg, po; assay type: ADME, organism-based; set-up: dose 50 mg/kg, route oral
[13] = Total body clearance in Wistar rat at 50 mg/kg, po; assay type: ADME, organism-based; set-up: dose 50 mg/kg, route oral; conditions: in vivo
Rattus norvegicus [14] = assay: Reduction of testosterone level in Wistar rat plasma at 50 mg/kg, po after 1 hr by ELISA relative to pretreatment value; assay type: functional; set-up: scale not given: the % may be the effect or the level left
[15] = Tmax in Wistar rat at 50 mg/kg, po; assay type: ADME, organism-based; set-up: dose 50 mg/kg, route oral; conditions: in vivo
CYP2B6 [16] = target: T6, CYP2B6 (Homo sapiens, UniProt P20813); assay: Inhibition of recombinant CYP2B6 at 10 uM; assay type: ADME
T6 sequence (P20813 whole entry): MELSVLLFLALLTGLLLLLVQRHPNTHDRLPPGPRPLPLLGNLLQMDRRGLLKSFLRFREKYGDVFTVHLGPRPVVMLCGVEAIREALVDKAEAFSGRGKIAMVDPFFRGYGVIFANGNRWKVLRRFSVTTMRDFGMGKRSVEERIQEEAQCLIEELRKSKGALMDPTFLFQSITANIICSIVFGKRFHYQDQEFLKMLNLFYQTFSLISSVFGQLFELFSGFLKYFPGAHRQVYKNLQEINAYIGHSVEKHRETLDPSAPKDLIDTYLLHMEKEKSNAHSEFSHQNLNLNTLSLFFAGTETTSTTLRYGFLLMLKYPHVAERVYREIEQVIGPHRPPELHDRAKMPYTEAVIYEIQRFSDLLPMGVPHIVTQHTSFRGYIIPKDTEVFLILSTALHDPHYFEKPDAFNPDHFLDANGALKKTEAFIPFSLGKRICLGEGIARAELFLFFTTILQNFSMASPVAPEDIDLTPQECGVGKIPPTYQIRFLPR

[17] = target: T1, Steroid 17-alpha-hydroxylase/17,20 lyase; assay: Inhibition of human CYP17 expressed in Escherichia coli co-expressed with NADPH-P450 reductase
CYP2B6 [18] = target: T6, CYP2B6; assay: Inhibition of recombinant CYP2B6 at 1 uM; assay type: ADME
Rattus norvegicus [19] = assay: Reduction of testosterone level in Wistar rat plasma at 50 mg/kg, po after 8 hrs by ELISA relative to pretreatment value; assay type: functional; set-up: scale not given: the % may be the effect or the level left
[20] = Cmax in Wistar rat at 50 mg/kg, po; assay type: ADME, organism-based; set-up: dose 50 mg/kg, route oral; conditions: in vivo
Rattus norvegicus [21] = assay: Reduction of testosterone level in Wistar rat at 50 mg/kg, po after 4 hrs by ELISA relative to pretreatment value; assay type: functional; set-up: scale not given: the % may be the effect or the level left
CYP3A4 [22] = target: T7, CYP3A4 (Homo sapiens, UniProt P08684); assay: Inhibition of recombinant CYP3A4 at 10 uM; assay type: ADME
[23] = target: T8, Steroid 17-alpha-hydroxylase/17,20 lyase (Rattus norvegicus, UniProt P11715); assay: Inhibition of Sprague-Dawley rat testicular CYP17
T8 sequence (P11715 whole entry): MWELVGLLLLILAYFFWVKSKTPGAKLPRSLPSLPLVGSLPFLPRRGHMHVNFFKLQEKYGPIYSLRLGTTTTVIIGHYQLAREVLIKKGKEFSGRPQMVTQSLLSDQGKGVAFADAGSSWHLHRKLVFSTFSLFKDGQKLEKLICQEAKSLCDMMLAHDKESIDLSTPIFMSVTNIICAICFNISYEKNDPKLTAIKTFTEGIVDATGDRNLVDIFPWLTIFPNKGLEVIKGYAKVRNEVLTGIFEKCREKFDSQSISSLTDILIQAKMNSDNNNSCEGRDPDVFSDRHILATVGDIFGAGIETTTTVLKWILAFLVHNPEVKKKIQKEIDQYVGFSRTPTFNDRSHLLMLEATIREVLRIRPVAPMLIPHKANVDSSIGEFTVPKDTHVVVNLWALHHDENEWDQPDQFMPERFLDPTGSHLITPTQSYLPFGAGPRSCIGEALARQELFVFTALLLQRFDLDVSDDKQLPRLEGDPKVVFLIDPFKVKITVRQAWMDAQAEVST

[24] = AUC (0 to infinity) in Wistar rat at 50 mg/kg, po; assay type: ADME, organism-based; set-up: time infinity, dose 50 mg/kg, route oral; conditions: plasma
CYP3A4 [25] = target: T7, CYP3A4; assay: Inhibition of recombinant CYP3A4 at 1 uM; assay type: ADME

T2 sequence (P33261 whole entry): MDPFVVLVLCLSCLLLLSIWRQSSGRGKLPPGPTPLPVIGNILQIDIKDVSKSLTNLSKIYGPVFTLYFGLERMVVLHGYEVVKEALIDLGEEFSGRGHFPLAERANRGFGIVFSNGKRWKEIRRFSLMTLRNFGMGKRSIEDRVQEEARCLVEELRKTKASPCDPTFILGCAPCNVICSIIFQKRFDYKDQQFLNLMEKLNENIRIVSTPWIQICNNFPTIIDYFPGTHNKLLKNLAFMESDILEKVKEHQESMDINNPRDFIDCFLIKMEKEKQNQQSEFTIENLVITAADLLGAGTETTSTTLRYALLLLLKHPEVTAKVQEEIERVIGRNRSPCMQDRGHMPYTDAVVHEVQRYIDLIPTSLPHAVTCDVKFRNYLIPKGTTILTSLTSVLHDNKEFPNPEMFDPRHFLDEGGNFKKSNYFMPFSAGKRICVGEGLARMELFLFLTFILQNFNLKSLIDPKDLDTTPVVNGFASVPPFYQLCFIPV
T4 sequence (P11712 whole entry): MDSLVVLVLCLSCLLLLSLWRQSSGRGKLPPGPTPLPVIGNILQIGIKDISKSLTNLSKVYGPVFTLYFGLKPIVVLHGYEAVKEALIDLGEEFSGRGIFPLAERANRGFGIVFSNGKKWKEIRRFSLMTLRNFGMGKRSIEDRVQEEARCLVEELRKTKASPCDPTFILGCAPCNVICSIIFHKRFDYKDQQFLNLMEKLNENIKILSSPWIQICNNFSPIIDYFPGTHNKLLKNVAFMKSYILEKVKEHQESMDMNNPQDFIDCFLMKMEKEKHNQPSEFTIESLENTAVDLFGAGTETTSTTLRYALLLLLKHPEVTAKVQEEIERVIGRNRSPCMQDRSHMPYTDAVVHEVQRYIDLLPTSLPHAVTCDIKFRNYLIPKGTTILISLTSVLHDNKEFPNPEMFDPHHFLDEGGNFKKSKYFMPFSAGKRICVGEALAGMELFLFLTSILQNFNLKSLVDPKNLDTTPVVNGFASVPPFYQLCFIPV
T5 sequence (P10635 whole entry): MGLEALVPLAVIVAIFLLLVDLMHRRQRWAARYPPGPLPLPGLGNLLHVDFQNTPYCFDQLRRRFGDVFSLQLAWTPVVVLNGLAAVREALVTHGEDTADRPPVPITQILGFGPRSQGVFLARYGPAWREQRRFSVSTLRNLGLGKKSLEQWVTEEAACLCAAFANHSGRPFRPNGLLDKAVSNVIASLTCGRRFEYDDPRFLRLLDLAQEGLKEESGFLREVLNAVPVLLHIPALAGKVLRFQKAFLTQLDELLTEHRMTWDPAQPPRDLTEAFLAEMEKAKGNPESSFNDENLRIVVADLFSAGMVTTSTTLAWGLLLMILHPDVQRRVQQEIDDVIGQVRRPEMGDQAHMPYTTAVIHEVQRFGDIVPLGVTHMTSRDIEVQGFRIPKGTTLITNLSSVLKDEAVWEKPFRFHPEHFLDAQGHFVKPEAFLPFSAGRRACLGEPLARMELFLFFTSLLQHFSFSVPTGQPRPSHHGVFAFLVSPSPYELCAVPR
T7 sequence (P08684 whole entry): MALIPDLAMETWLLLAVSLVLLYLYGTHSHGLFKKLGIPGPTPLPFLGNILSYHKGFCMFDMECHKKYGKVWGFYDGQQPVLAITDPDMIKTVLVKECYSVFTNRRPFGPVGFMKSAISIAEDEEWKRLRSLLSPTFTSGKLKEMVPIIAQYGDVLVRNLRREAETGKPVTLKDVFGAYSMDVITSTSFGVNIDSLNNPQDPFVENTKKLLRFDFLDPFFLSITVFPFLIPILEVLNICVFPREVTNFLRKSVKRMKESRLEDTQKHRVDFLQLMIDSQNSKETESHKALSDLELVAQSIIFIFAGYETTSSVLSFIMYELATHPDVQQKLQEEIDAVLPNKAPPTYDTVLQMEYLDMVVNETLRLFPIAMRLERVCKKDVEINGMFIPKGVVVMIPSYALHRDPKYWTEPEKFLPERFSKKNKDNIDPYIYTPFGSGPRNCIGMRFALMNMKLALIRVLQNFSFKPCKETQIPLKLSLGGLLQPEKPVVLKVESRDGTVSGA

COc1ccc(-c2ccc(Cn3ccnc3)cn2)cc1OC
inhibition at 0.2 µM [1]: 1% | inhibition at 2 µM [2]: 2%

COc1ccc(-c2ccc(Cn3ccnc3)cn2)cc1
inhibition at 0.2 µM [1]: 0% | inhibition at 2 µM [2]: 0%

COc1cccc(-c2ccc(Cn3ccnc3)cn2)c1
inhibition at 0.2 µM [1]: 0% | inhibition at 2 µM [2]: 1%

CCC(c1ccc(-c2ccc(SC)s2)cc1)n1ccnc1 (stereo unspecified)
inhibition at 0.2 µM [1]: 2% | inhibition at 2 µM [2]: 3%

CSc1ccc(-c2ccc(Cn3ccnc3)cc2)s1
inhibition at 0.2 µM [1]: 3% | inhibition at 2 µM [2]: 35%

CC(c1ccc(N2CCOCC2)cc1)n1ccnc1 (stereo unspecified)
inhibition at 0.2 µM [1]: 5% | inhibition at 2 µM [2]: 12%

Fc1ccc(-c2ccc(Cn3ccnc3)nc2)cc1
inhibition at 0.2 µM [1]: 0% | inhibition at 2 µM [2]: 2%

Fc1ccc(-c2ccc(Cn3ccnc3)cc2)cn1
inhibition at 0.2 µM [1]: 4% | inhibition at 2 µM [2]: 13%

ClCc1ccc(-c2ccc(Cn3ccnc3)cc2)cn1
inhibition at 0.2 µM [1]: 9% | inhibition at 2 µM [2]: 24%

COc1ccc(-c2csc(Cn3ccnc3)c2)cc1OC
inhibition at 0.2 µM [1]: 0% | inhibition at 2 µM [2]: 14%

CCC(c1cc(-c2ccc(F)c(F)c2)cs1)n1ccnc1 (stereo unspecified)
inhibition at 1 µM (CYP2C19 [3]): 95% | inhibition at 10 µM (CYP1A2 [4]): 96% | inhibition at 0.2 µM [1]: 17% | inhibition at 10 µM (CYP2C19 [5]): 97% | inhibition at 2 µM [2]: 68% | inhibition at 1 µM (CYP1A2 [6]): 93% | inhibition at 1 µM (CYP2C9 [7]): 94% | inhibition at 10 µM (CYP2C9 [8]): 100%

Fc1ccc(-c2ccc(Cn3ccnc3)cn2)cc1
inhibition at 0.2 µM [1]: 5% | inhibition at 2 µM [2]: 5%

CC(c1ccc(-c2ccsc2)cc1)n1ccnc1 (stereo unspecified)
Activity (Rattus norvegicus [9]): 29.7% | inhibition at 1 µM (CYP2D6 [10]): 17% | inhibition at 1 µM (CYP2C19 [3]): 87% | inhibition at 10 µM (CYP1A2 [4]): 100% | inhibition at 10 µM (CYP2D6 [11]): 68% | half-life [12]: 9.5 h | CL/F [13]: 33.5 mL/min/kg | Activity (Rattus norvegicus [14]): 30.9% | inhibition at 0.2 µM [1]: 21% | inhibition at 10 µM (CYP2C19 [5]): 99% | inhibition at 2 µM [2]: 67% | inhibition at 1 µM (CYP1A2 [6]): 97% | Tmax [15]: 1 h | inhibition at 1 µM (CYP2C9 [7]): 75% | inhibition at 10 µM (CYP2B6 [16]): 87% | IC50 [17]: 953 nM | inhibition at 1 µM (CYP2B6 [18]): 49% | Activity (Rattus norvegicus [19]): 34.1% | inhibition at 10 µM (CYP2C9 [8]): 89% | Cmax [20]: 1280 ng/mL | Activity (Rattus norvegicus [21]): 25.9% | inhibition at 10 µM (CYP3A4 [22]): 94% | IC50 [23]: 676 nM | AUC(0-inf) [24]: 24900 ng·h/mL | inhibition at 1 µM (CYP3A4 [25]): 80%

Nc1cccc(-c2ccc(Cn3ccnc3)cn2)c1
inhibition at 0.2 µM [1]: 2% | inhibition at 2 µM [2]: 3%

c1cn(Cc2ccc(-c3ccoc3)cc2)cn1
inhibition at 0.2 µM [1]: 3% | inhibition at 2 µM [2]: 29%

COc1cccc(-c2csc(Cn3ccnc3)c2)c1
inhibition at 0.2 µM [1]: 0% | inhibition at 2 µM [2]: 24%
